Assay [1] in a line: Antiproliferative activity against mouse keratinocytes at 10 nM relative to calcitrol. Format: functional, Keratinocyte.
The subject of assay [2] is Rattus norvegicus. Briefly: Inhibition of calciuria in rat at 10 ug/kg, po administered qd for 1 week. Format: functional, organism-based.
Assay [3] concerns Keratinocyte. Description: Antiproliferative activity against mouse keratinocytes. In kind it is functional, cell-based.

The structures appear in SMILES notation. The source made the active and inactive calls. The calls are words filed in the database; no cut-off is given here.

Consider `C=C1/C(=C\C=C2/CCC[C@]3(C)C([C@H](C)CCCS(=O)(=O)C(F)(F)F)=CC[C@@H]23)C[C@@H](O)C[C@@H]1O`, for which, in assay [1], the Ratio was 2. The inhibition entry in assay [2] is “Active”.

As for `C=C1/C(=C\C=C2/CCC[C@]3(C)C([C@H](C)CCCS(C)(=O)=O)=CC[C@@H]23)C[C@@H](O)C[C@@H]1O`, in assay [2], the inhibition result was “Active”. Besides, the result in assay [3] was Active.

`C=C1/C(=C\C=C2/CCC[C@]3(C)[C@@H]([C@H](C)CCCC(C)(C)O)CC[C@@H]23)C[C@@H](O)C[C@@H]1O`: in assay [2], the inhibition result is “Active”.

In the case of `C=C1/C(=C\C=C2/CCC[C@]3(C)C([C@H](C)CCCS(=O)(=O)C(C)C)=CC[C@@H]23)C[C@@H](O)C[C@@H]1O`, the inhibition entry in assay [2] is “Active”. The result in assay [3] was Active.

For the origin of these results see ChEMBL document CHEMBL1157003, “'Novel alkyl side chain sulfone 1alpha,25-dihydroxyvitamin D3 analogs: a comparison of in vitro antiproliferative activities and in vivo calcemic activities'” (2009).
